Measured values published in patent US20210038607A1, “OXADIAZOLYLTHIOPHENE DERIVATIVES USEFUL AS HISTONE DEACETYLASE INHIBITORS” (Karus Therapeutics Limited, priority 2018, published 2021).

Key:
Human HDAC1 = target: T1, Human HDAC1 (Homo sapiens, UniProt Q13547); experiment: HDAC1 biochemical assay, AMC-labeled peptide substrate; conditions: read-out: HDAC Isoform IC50 (nM) 1
T1 construct: full length with C-terminal His-tag and C-terminal FLAG-tag; His (C); FLAG (C); host or cells: baculovirus expression system
Method: (§1) Activity against all zinc-dependent HDACs 1 to 11 was assessed by using an acetylated AMC-labeled peptide substrate. The substrate RHKK(Ac)AMC was used for HDAC1, HDAC2, HDAC3, HDAC6 and HDAC10; the substrate used for HDAC8 was RHK(Ac)K(Ac)AMC. Activity against the class IIa HDACs (HDAC4, 5, 7, 9) and HDAC11 was determined using a class IIa-specific substrate, BOC-Lys(trifluoroacetyl)-AMC (“Trifluoroacetyl Lysine”; see Lahm et al, 2007, PNAS, 104, 17335-17340). All assays were based on the AMC-labeled substrate and developer combination.
(§2) The protocol involved a two-step reaction: first, the substrate with the acetylated lysine side chain is incubated with a sample containing HDAC activity, to produce the deacetylated products, which are then digested in the second step by the addition of developer to produce the fluorescent signal proportional to the amount of deacetylated substrates.
Human HDAC1 (GenBank Accession No. NM_004964), full length with C-terminal His-tag and C-terminal FLAG-tag, MW=56 kDa, expressed in baculovirus expression system.
(§3) Assay Buffer: 50 mM Tris-HCl, pH8.0, 137 mM NaCl, 2.7 mM KCl, 1 mM MgC2. Before use, 1 mg/mL BSA and DMSO are added.
HDAC1: 0.3 ng/ul HDAC1 and 50 μM HDAC substrate are in the reaction buffer with 1% DMSO final. Incubate for 1 hour at 30° C.
(§4) Stage 1: Deacetylation of substrate by incubation of HDAC enzymes with compounds
(§5) Stage 2: Development by addition of Developer to digest the deacetylated substrate, and generate the fluorescent colour; Detection: 360/460 Ex/Em

Human HDAC7 = target: T2, Human HDAC7 (Homo sapiens, UniProt Q8WUI4); experiment: HDAC7 biochemical assay, class IIa-specific substrate; conditions: read-out: HDAC Isoform IC50 (nM) 7
T2 construct: (a.a. 518-end) with N-terminal GST tag; GST (N); host or cells: baculovirus expression system
T2 sequence (Q8WUI4 518-952 limits assumed): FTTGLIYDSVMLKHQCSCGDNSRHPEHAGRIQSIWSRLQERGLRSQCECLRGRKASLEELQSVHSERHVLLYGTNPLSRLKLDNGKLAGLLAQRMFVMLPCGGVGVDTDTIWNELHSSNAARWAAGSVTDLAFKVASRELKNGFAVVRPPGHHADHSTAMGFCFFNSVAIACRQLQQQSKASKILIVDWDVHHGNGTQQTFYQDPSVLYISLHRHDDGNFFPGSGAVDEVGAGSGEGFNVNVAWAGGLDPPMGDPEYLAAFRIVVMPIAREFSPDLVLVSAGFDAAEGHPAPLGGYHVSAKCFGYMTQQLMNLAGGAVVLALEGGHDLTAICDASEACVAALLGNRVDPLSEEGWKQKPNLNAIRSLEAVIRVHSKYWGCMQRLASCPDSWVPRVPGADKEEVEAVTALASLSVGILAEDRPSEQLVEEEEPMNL
Method: as §1, §2
Human HDAC7 (GenBank Accession No. AY302468), (a.a. 518-end) with N-terminal GST tag, MW=78 kDa, expressed in baculovirus expression system.
as §3
(§6) For class IIa HDACs, assay buffer is the same.
HDAC7: 0.001 ng/ul HDAC7 and 50 μM Class IIa HDAC substrate are in the reaction buffer with 1% DMSO final. Incubate for 30 minutes at room temperature.
as §4, §5

Recombinant human HDAC6 = target: T3, Recombinant human HDAC6 (Homo sapiens, UniProt Q9UBN7); experiment: HDAC6 biochemical assay, AMC-labeled peptide substrate; conditions: HDAC6; read-out: HDAC Isoform IC50 (nM) 6
T3 construct: full length, MW=159 kDa; GST (N); host or cells: Sf9 insect cells (baculovirus)
T3 sequence (Q9UBN7 1-1215): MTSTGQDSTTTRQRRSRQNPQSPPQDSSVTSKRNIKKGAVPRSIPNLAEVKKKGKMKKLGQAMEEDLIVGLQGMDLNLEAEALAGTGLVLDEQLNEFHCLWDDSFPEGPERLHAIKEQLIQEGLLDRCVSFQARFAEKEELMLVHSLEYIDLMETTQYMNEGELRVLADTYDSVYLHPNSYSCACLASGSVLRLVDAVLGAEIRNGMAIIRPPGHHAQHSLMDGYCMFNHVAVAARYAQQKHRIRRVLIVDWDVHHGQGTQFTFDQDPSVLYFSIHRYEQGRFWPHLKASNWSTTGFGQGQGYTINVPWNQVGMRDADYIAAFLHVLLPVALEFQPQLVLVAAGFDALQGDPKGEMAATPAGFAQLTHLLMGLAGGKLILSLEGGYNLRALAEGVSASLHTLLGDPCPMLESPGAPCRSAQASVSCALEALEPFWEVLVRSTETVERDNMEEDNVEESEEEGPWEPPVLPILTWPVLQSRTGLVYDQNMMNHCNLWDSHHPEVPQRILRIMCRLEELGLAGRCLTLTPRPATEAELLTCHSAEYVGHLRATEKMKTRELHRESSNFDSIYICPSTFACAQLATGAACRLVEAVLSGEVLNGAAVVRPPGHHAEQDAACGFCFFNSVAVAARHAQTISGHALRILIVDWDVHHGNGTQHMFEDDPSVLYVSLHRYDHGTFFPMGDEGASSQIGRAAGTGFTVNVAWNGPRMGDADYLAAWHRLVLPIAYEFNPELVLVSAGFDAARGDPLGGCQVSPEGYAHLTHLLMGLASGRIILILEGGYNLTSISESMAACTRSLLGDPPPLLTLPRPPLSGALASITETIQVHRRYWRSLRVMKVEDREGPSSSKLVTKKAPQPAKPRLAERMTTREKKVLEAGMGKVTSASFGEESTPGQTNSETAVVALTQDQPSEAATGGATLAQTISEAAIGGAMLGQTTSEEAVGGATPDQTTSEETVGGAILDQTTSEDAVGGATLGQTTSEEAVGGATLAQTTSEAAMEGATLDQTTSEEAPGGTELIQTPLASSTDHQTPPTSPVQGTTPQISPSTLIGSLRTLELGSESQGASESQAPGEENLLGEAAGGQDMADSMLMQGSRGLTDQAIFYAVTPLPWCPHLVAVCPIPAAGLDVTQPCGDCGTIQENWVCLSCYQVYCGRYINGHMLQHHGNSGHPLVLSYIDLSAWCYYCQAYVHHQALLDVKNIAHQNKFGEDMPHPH
Method: as §1, §2
Recombinant human HDAC6 (GenBank Accession No. BC069243), full length, MW=159 kDa, was expressed by baculovirus in Sf9 insect cells using an N-terminal GST tag.
as §3
HDAC6: 0.3 ng/ul HDAC6 and 50 μM HDAC substrate are in the reaction buffer with 1% DMSO final. Incubate for 1 hours at 30° C.
as §4, §5

Human HDAC4 = target: T4, Human HDAC4 (Homo sapiens, UniProt P56524); experiment: HDAC4 biochemical assay, class IIa-specific substrate; conditions: read-out: HDAC Isoform IC50 (nM) 4
T4 construct: amino acids 627-1085 with N-terminal GST tag; GST (N); host or cells: baculovirus expression system
Method: as §1, §2
Human HDAC4 (GenBank Accession No. NM_006037), amino acids 627-1085 with N-terminal GST tag, MW=75.2 kDa, expressed in baculovirus expression system.
as §3, §6
HDAC4: 0.004 ng/ul HDAC4 and 50 μM Class IIa HDAC substrate are in the reaction buffer with 1% DMSO final. Incubate for 30 minutes at room temperature.
as §4, §5

Human HDAC5 = target: T5, Human HDAC5 (Homo sapiens, UniProt Q9UQL6); experiment: HDAC5 biochemical assay, class IIa-specific substrate; conditions: read-out: HDAC Isoform IC50 (nM) 5
T5 construct: full length with C-terminal His tag, MW=51.1 kDa; His (C); host or cells: baculovirus expression system
Method: as §1, §2
Human HDAC5 (GenBank Accession No. NM_005474), full length with C-terminal His tag, MW=51.1 kDa, expressed in baculovirus expression system.
as §3, §6
HDAC5: 0.05 ng/ul HDAC5 and 50 μM Class IIa HDAC substrate are in the reaction buffer with 1% DMSO final. Incubate for 30 minutes at room temperature.
as §4, §5

Human HDAC9 = target: T6, Human HDAC9 (Homo sapiens, UniProt Q9UKV0); experiment: HDAC9 biochemical assay, class IIa-specific substrate; conditions: read-out: HDAC Isoform IC50 (nM) 9
T6 construct: amino acids 604-1066 with C-terminal His tag; His (C); host or cells: baculovirus expression system
Method: as §1, §2
Human HDAC9 (GenBank Accession No. NM_178423), amino acids 604-1066 with C-terminal His tag, MW=50.7 kDa, expressed in baculovirus expression system.
as §3, §6
HDAC9: 0.06 ng/ul HDAC9 and 50 μM Class IIa HDAC substrate are in the reaction buffer with 1% DMSO final. Incubate for 30 minutes at room temperature.
as §4, §5

T5 sequence (Q9UQL6 656-1122 limits assumed): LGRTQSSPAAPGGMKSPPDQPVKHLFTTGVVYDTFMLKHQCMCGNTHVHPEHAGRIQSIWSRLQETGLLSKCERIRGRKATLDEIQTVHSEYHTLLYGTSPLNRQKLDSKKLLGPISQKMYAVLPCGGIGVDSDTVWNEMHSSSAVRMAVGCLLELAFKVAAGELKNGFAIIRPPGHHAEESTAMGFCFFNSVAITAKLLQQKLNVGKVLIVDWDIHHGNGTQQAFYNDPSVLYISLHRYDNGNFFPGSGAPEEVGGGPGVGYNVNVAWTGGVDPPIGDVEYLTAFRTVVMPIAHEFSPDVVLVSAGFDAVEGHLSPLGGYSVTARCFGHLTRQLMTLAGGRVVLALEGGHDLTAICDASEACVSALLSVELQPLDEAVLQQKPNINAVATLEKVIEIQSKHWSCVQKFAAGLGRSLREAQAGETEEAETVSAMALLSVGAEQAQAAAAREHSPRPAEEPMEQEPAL
T1 sequence (Q13547 whole entry, canonical isoform): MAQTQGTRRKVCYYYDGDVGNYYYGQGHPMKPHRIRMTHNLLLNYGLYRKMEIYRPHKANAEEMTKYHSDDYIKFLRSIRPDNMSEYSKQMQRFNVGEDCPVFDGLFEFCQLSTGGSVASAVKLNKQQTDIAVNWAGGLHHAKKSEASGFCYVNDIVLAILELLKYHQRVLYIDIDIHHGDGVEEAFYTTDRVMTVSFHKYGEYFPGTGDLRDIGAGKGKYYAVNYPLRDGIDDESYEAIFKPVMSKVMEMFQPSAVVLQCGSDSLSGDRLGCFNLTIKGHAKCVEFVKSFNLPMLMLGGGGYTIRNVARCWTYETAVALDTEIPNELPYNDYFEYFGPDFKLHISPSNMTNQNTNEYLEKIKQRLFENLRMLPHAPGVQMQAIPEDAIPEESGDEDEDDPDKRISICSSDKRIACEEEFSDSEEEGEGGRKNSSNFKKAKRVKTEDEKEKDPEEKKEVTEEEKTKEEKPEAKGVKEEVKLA
T6 sequence (Q9UKV0 604-1066 isoform Q9UKV0-5): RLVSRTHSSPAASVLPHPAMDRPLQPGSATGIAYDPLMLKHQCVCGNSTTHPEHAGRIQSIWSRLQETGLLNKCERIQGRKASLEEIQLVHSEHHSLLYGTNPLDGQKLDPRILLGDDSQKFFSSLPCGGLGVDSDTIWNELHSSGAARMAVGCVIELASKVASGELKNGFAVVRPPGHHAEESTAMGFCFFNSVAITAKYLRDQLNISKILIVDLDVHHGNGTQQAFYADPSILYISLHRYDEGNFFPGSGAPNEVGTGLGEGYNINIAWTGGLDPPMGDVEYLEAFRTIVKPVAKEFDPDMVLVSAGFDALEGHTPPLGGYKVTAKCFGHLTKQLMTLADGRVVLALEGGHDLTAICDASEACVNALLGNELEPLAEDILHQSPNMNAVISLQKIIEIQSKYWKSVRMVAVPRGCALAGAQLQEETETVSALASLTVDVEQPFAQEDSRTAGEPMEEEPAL
T4 sequence (P56524 627-1084 limits assumed): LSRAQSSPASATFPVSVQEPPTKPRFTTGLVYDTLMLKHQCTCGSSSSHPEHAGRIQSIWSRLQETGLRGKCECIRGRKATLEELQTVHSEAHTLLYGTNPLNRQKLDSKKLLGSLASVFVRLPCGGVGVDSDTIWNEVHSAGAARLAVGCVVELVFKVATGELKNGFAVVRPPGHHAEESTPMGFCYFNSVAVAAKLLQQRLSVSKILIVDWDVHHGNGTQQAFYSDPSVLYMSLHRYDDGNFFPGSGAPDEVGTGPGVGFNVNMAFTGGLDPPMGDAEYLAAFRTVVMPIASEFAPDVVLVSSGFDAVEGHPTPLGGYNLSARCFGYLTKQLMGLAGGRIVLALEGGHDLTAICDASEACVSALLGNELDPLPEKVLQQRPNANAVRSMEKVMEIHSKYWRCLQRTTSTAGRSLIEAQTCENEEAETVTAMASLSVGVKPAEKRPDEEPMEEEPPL

Structure (SMILES)	IC50 (Human HDAC1) [nM]	IC50 (Human HDAC7) [nM]	IC50 (Recombinant human HDAC6) [nM]	IC50 (Human HDAC4) [nM]	IC50 (Human HDAC5) [nM]	IC50 (Human HDAC9) [nM]
CS(=O)(=O)c1cc(N(Cc2ccc(-c3noc(C(F)(F)F)n3)s2)c2cnccn2)ncn1 [Example CK, 6-Methanesulfonyl-N-(pyrazin-2-yl)-N-({5-[5-(trifluoromethyl)-1,2,4-oxadiazol-3-yl]thiophen-2-yl}methyl)pyrimidin-4-amine]	> 10000	≤ 10000	≤ 10000	≤ 1000	≤ 10000	≤ 10000
Cc1cncnc1N(Cc1ccc(-c2noc(C(F)(F)F)n2)s1)c1cnccn1 [Example CO, 5-Methyl-N-(pyrazin-2-yl)-N-({5-[5-(trifluoromethyl)-1,2,4-oxadiazol-3-yl]thiophen-2-yl}methyl)pyrimidin-4-amine]	> 10000	≤ 1000	≤ 1000	≤ 500	≤ 1000	≤ 10000
COc1cncnc1N(Cc1ccc(-c2noc(C(F)(F)F)n2)s1)c1cnccn1 [Example CP, 5-Methoxy-N-(pyrazin-2-yl)-N-({5-[5-(trifluoromethyl)-1,2,4-oxadiazol-3-yl]thiophen-2-yl}methyl)pyrimidin-4-amine]	> 10000	≤ 10000	≤ 1000	≤ 10000	≤ 10000	≤ 10000
Cc1nc(N2CCCC2)cc(N(Cc2ccc(-c3noc(C(F)(F)F)n3)s2)c2cnccn2)n1 [Example CQ, 2-Methyl-N-(pyrazin-2-yl)-6-(pyrrolidin-1-yl)-N-({5-[5-(trifluoromethyl)-1,2,4-oxadiazol-3-yl]thiophen-2-yl}methyl)pyrimidin-4-amine]	> 10000	≤ 10000	≤ 10000	≤ 10000	≤ 10000	≤ 10000
FC(F)(F)c1nc(-c2ccc(CN(c3cnccn3)c3ccc4nccn4n3)s2)no1 [Example DT, N-{Imidazo[1,2-b]pyridazin-6-yl}-N-({5-[5-(trifluoromethyl)-1,2,4-oxadiazol-3-yl]thiophen-2-yl}methyl)pyrazin-2-amine]	> 10000	≤ 500	≤ 1000	≤ 1000	≤ 500	≤ 1000

Other lines, results leading:

IC50 (Human HDAC1) [nM]	IC50 (Human HDAC7) [nM]	IC50 (Recombinant human HDAC6) [nM]	IC50 (Human HDAC4) [nM]	IC50 (Human HDAC5) [nM]	IC50 (Human HDAC9) [nM]	Structure (SMILES)
> 10000	≤ 500	≤ 10000	≤ 500	≤ 500	≤ 10000	CS(=O)(=O)c1ncc(N(Cc2ccc(-c3noc(C(F)(F)F)n3)s2)c2cnccn2)cn1 [Example CW, 2-Methanesulfonyl-N-(pyrazin-2-yl)-N-({5-[5-(trifluoromethyl)-1,2,4-oxadiazol-3-yl]thiophen-2-yl}methyl)pyrimidin-5-amine]
> 10000	≤ 10000	≤ 500	≤ 10000	≤ 1000	≤ 10000	FC(F)(F)c1nc(-c2ccc(CN(c3cnccn3)c3ccc(N4CCOCC4)nn3)s2)no1 [Example DJ, 6-(Morpholin-4-yl)-N-(pyrazin-2-yl)-N-({5-[5-(trifluoromethyl)-1,2,4-oxadiazol-3-yl]thiophen-2-yl}methyl)pyridazin-3-amine]
> 10000	≤ 10000	≤ 1000	≤ 10000	≤ 1000	≤ 10000	COc1ccc2ncnc(N(Cc3ccc(-c4noc(C(F)(F)F)n4)s3)c3cnccn3)c2c1 [Example CN, 6-Methoxy-N-(pyrazin-2-yl)-N-({5-[5-(trifluoromethyl)-1,2,4-oxadiazol-3-yl]thiophen-2-yl}methyl)quinazolin-4-amine]
> 10000	> 10000	≤ 10000	> 10000	≤ 10000	> 10000	FC(F)(F)c1nc(-c2ccc(CN(c3cnccn3)c3cc(C4CC4)ccn3)s2)no1 [Example AH, N-(4-Cyclopropylpyridin-2-yl)-N-({5-[5-(trifluoromethyl)-1,2,4-oxadiazol-3-yl]thiophen-2-yl}methyl)pyrazin-2-amine]
